In patent US20210228523A1, “MODULATORS OF SESTRIN-GATOR2 INTERACTION AND USES THEREOF” (Navitor Pharmaceuticals, Inc., priority 2017, published 2021):

How the values were obtained:
[1] = system: Male Sprague Dawley rats; assay: Sucrose Preference Test (SPT) in non-stressed and chronic unpredictable stress rats; assay type: in vivo, rat; conditions: Example E, NV-5138 160 mg/kg oral single dose, 24 hrs after dosing
Protocol: Behavioral Analysis Using the Sucrose Preference Test (SPT): Rats were habituated to a palatable sucrose 1% sucrose solution for 48 hrs to avoid neophobia. Rats were treated with NV-5138 or Veh at the end of day 0 and the SPT was performed 24 hrs post-administration on day 1. For the SPT, rats were deprived of water for 6 hrs and exposed for 60 min to two bottles with equal volumes of 1% sucrose or water. The ratio of the volume of sucrose water consumed to total water consumed during the 1 hr test was defined as sucrose preference (e.g., a ratio of 1 would indicate the rat consumed only 1% sucrose, while a ratio of 0.5 would indicate that the rat drank equal amounts of 1% sucrose and water).
Chronic Unpredictable Stress (CUS) Conditions: Rats were exposed to a variable sequence of 12 unpredictable stressors, preventing habituation as described (Li, N. et al., Biol Psychiatry 69(8): 754-61 (2011)). […]
Study Design: Fifty-six (56) male rats weighing between 175 and 200 g were randomized into 4 study groups (n=14/group), following a 5-day acclimation period. […] Crude synaptosomes were prepared from the PFC and the synaptic proteins, GluR1 and PSD95 were quantitated by WB. […]

[2] = system: layer V pyramidal neurons in PFC; assay: Whole cell patch clamp recording of 5-HT- and Hcrt-induced EPSCs in brain slices after oral dosing; assay type: in vivo, rat; conditions: Example H, NV-5138 160 mg/kg oral single dose
Protocol: Study Design: Sixteen (16) male rats weighing between 175 and 200 g were randomized into 2 study groups (n=8), following a 5-day acclimation period. On study day 0, rats received a single dose of either NV vehicle (Veh, 0.5% methylcellulose/0.1% Tween-80) or NV-5138 (160 mg/kg), by oral gavage. On day 1, 24 hrs after dosing, rats were sacrificed, and brain slices were prepared and subjected to whole cell patch clamp recording of layer V pyramidal neurons in PFC.
Preparation of Test Articles: NV-5138 (Navitor, Lot #07) was prepared by dissolving in Veh (0.5% methylcellulose/0.1% Tween-80) at a concentration of 50 mg/mL. The dosing volume based on the weight of the animal (3.2 mL/kg) was administered by oral gavage to study animals. Test articles were prepared the day of dosing.
Brain Slice Preparation: Brain slices were prepared according to published procedures (Liu, R. J. et al., J. Neurosci. 22(21): 9453-9464 (2002)). Briefly, rats were anesthetized with chloral hydrate (400 mg/kg, i.p.), in adherence to protocols approved by the Yale Animal Care and Use Committee. After decapitation, the brains were removed rapidly and placed in ice-cold (4° C.) artificial cerebrospinal fluid (ACSF) in which sucrose (252 mM) was substituted for NaCl (sucrose-ACSF) to prevent cell swelling. A block of tissue containing PFC was dissected and coronal slices (400 μm) were cut in sucrose-ACSF with an oscillating-blade tissue sheer (Leica VT1000S). After placement of the slice in a submerged recording chamber, the bath temperature was raised to 32° C. Known concentrations of drugs dissolved in ACSF, applied through a stopcock arrangement at a fast flow rate (4 mL/min), reached the slice within 7-10 s. […] A recovery period of ˜1-2 h was allowed before commencement of recording.
Electrophysiology Recording. […] Series resistance, monitored throughout the experiment, was usually between 4 and 8 MΩ. […]

Question: Which “SPT, mean ratio of 1% sucrose to water consumption” value ([1]; CUS rats (Group 4)) does the source give for `CC(C)(C[C@H](N)C(=O)O)C(F)F` [NV-5138] here?
Answer: 0.79

Question: And the “SPT, mean ratio of 1% sucrose to water consumption” value ([1]; non-stressed (NS) rats)?
Answer: 0.76

Question: What about the “amplitude of 5-HT- and Hcrt-induced EPSCs (cumulative probability distribution)” value ([2]; FIG. 31, 24 hrs) of the same compound?
Answer: on frequency but not amplitude

Question: And the “frequency of 5-HT-induced EPSCs relative to vehicle-treated rats” value ([2]; 24 hrs after dosing)?
Answer: significantly increased

Question: And the “frequency of Hcrt-induced EPSCs relative to vehicle-treated rats” value ([2]; 24 hrs after dosing)?
Answer: significantly increased
